Where “and” joins values, the source holds several entries; their conditions need not be identical. Equal entries are not always repeated.
Legend:
[1] = test system: human kidney cancer cell line Caki-1; assay: In vivo anticancer activity, intravenous injection 2, Caki-1 kidney cancer in nude mice; parameters: species or system mouse; conditions: Example 1 20 mg/kg/day, topotecan 2 mg/kg/day; for Tumor volume (mm^3) / Tumor weight: iv; for Inhibition rate (%) of tumor volume / Inhibition rate (%) of tumor weight: vs control; for Tumor weight: day 14 (final day)
Description: To evaluate the inhibition effect of the compound prepared in example 1 administered via intravenous injection on the growth of kidney cancer, in vivo anticancer activity in mouse was measured. Particularly, nude-mice were grouped for experimental and control groups (5 mice per group). Changes in body weight, tumor volume, and tumor weight were measured to evaluate in vivo anticancer activity.
(§1) Female nude mice at 6 weeks (BALB/c nu/nu, Charles River) were raised in a germ-free facility where temperature and humidity were maintained at proper levels during the whole experimental period. After anesthetizing each mouse, the human kidney cancer cell line Caki-1 was transplanted in kidney tissues at the density of 4×10^7 cells/mouse, and then the opened kidney was sealed with surgical clips. After transplanting the kidney cancer cell line, the tumor volume was measured with calipers. When the tumor volume reached 52.7 mm^3, the compound of the present invention prepared in example 1 was treated thereto. Particularly, for the experimental group, the compound of example 1 was dissolved in the solvent composed of cremophor (10%), DMAC (10%), and pH 10 buffer […], which is indicated as ‘solvent B’ hereinafter, at the concentration of 20 mg/kg. The prepared compound solution was intravenously administered to the experimental group mice once a day at the dose of […]. The control was treated with the solvent B only without the compound once a day via oral administration at the dose of 15 ml/kg. The comparative group was treated with the solvent B containing topotecan (2 mg/kg) via intravenous injection once a day at the dose of 15 ml/kg. The weight and the tumor volume were measured once a day on day 0, 2, 4, 7, 9, 11, and 14.
(§2) Tumor volume was calculated by the mathematical formula 1 of Experimental Example 4. To investigate the toxicity according to the repeated intravenous administration of the compound of example 1, mouse weight changes were observed and presented in Table 5. Inhibition rate (%) in Table 6 was calculated by the mathematical formula 2, which indicates the inhibition of tumor growth by the compound presented by %.

[2] = Mouse weight changes and symptoms, repeated intravenous administration (Caki-1 model); format: in vivo; conditions: for Mouse weight changes (%): iv, Example 1 20 mg/kg/day, topotecan 2 mg/kg/day
Description: as §1, §2

[3] = Mouse weight changes and symptoms, intraperitoneal administration (B16F10 angiogenesis experiment); format: in vivo; conditions: for Mouse weight changes (%): ip, Example 1 20 mg/kg/day, topotecan 2 mg/kg/2 day
Description: Particularly, the experimental group composed of 5 female mice (C57BL) at 6 weeks was transplanted with B16F10 melanoma cell line. After the cancer cells were grown, the mice were treated with the compound of formula 1 via intraperitoneal injection at the dose of […] for 5 days. Inhibition of angiogenesis and the tumor growth were observed. In the meantime, the control group was treated with the mixed solution comprising 10% DMAC, 10% cremophor and 80% buffer (pH 10) every day. The comparative group was treated with topotecan at the dose of 2 mg/kg once every other day. Weight changes and the newly generated blood vessels were measured and the results are shown in Table 7, Table 8, FIG. 7, and FIG. 8. The tumor volume shown in Table 8 was calculated by the mathematical formula 1 of experimental example 4 and the inhibition rate was calculated by the mathematical formula 2 of experimental example 4.

[4] = test system: B16F10 melanoma cell line; assay: Cancer metastasis inhibition activity, B16F10 melanoma lung colonies in C57BL mice; format: in vivo, mouse; conditions: Example 1 20 mg/kg/day, topotecan 2 mg/kg/2 day; for Metastasis colony number: day 12, ip; for Metastasis inhibition rate (%): day 12, vs control
Description: Particularly, the experimental group composed of 6 female mice (C57BL) at 6 weeks was transplanted with B16F10 melanoma cell line. After the cancer cells were grown, the mice were treated with the compound of formula 1 via intraperitoneal injection at the dose of […] every day for 12 days. Inhibition of angiogenesis and the tumor growth were observed. In the meantime, the control group was treated with purified water every day. The comparative group was treated with topotecan at the dose of 2 mg/kg once every other day. Weight changes and cancer metastasis were measured and the results are shown in Table 9, Table 10, and FIG. 10.
As shown in Table 10 and FIG. 10, the mice were sacrificed on the last day of experiment (day 12) and then cancer colonies in lung were counted by the naked eye.

SMILES | Tumor volume (mm^3) ([1]; day 0) | Tumor volume (mm^3) ([1]; day 2) | Inhibition rate (%) of tumor volume ([1]; day 2) | Tumor volume (mm^3) ([1]; day 4) | Inhibition rate (%) of tumor volume ([1]; day 4) | Tumor volume (mm^3) ([1]; day 7) | Inhibition rate (%) of tumor volume ([1]; day 7) | Tumor volume (mm^3) ([1]; day 9) | Inhibition rate (%) of tumor volume ([1]; day 9) | Tumor volume (mm^3) ([1]; day 11) | Inhibition rate (%) of tumor volume ([1]; day 11) | Tumor weight [1] | Tumor volume (mm^3) ([1]; day 14) | Inhibition rate (%) of tumor volume ([1]; day 14) | Inhibition rate (%) of tumor weight ([1]; day 14) | Mouse weight changes (%) ([2]; day 0) | Mouse weight changes (%) ([2]; day 2) | Mouse weight changes (%) ([2]; day 4) | Mouse weight changes (%) ([2]; day 7) | Mouse weight changes (%) ([2]; day 9) | other results
COC(=O)c1cccc(NC(=O)/C=C/Oc2ccc(C34CC5CC(CC(C5)C3)C4)cc2)c1 [Example 1, (E)-3-[3-(4-Adamantan-1-yl-phenoxy)-acryloylamino]-benzoic acid methyl ester] | 0.0 ± 0.0 mm^3 | 17.1 ± 2.0 mm^3 | 18.4% | 41.4 ± 13.5 mm^3 | 21.6% | 77.6 ± 11.8 mm^3 | 24.2% | 107.0 ± 18.5 mm^3 | 28.2% | 141.9 ± 14.8 mm^3 | 30.6% | 640.0 ± 61.8 mg | 200.2 ± 34.2 mm^3 | 30% and 30.9% | 29.6% | 100.0 ± 0.0% | 104.7 ± 1.7% | 105.3 ± 2.2% | 105.5 ± 3.1% | 106.6 ± 4.9% | body weight on the final day of observation (day 14) compared with control ([2]; 20 mg/kg iv, nude mice): not significantly reduced; symptoms during repeated intravenous administration ([2]; 20 mg/kg iv, nude mice): no specific symptom was observed; Mouse weight changes (%) ([2]; day 11): 107.3 ± 6.8%; Mouse weight changes (%) ([2]; day 14): 109.5 ± 6.4%; body weight on the final day of observation (day 5) compared with control ([3]; 20 mg/kg ip, C57BL mice): not significantly reduced; symptoms during repeated intraperitoneal injection ([3]; 20 mg/kg ip, C57BL mice, 5 days): no specific symptom was observed; Mouse weight changes (%) ([3]; day 0): 100.0 ± 0.0%; Mouse weight changes (%) ([3]; day 2): 102.6 ± 1.6%; Mouse weight changes (%) ([3]; day 5): 107.6 ± 3.9%; Metastasis colony number [4]: 207 and 207.0 ± 47.5; Metastasis inhibition rate (%) [4]: 32.5%
CC[C@@]1(O)C(=O)OCc2c1cc1n(c2=O)Cc2cc3c(CN(C)C)c(O)ccc3nc2-1 [topotecan, reference compound] | 0.0 ± 0.0 mm^3 | 16.7 ± 2.3 mm^3 | 20.1% | 38.7 ± 4.8 mm^3 | 26.6% | 67.8 ± 8.6 mm^3 | 33.8% | 88.5 ± 19.6 mm^3 | 40.6% | 120.9 ± 36.0 mm^3 | 40.9% | 472.4 ± 137.6 mg | 156.9 ± 51.3 mm^3 | 45.8% | 48.0% | 100.0 ± 0.0% | 104.7 ± 1.9% | 103.8 ± 3.8% | 103.4 ± 2.6% | 101.8 ± 3.6% | Mouse weight changes (%) ([2]; day 11): 103.0 ± 3.6%; Mouse weight changes (%) ([2]; day 14): 102.9 ± 5.3%; Mouse weight changes (%) ([3]; day 0): 100.0 ± 0.0%; Mouse weight changes (%) ([3]; day 2): 101.2 ± 0.6%; Mouse weight changes (%) ([3]; day 5): 103.7 ± 1.4%; Metastasis colony number [4]: 148.3 ± 49.4; Metastasis inhibition rate (%) [4]: 51.7%
